Format in all cases: in vivo
Experiment [1] has as its system Green Leafhopper (Nephotettix sp.). In words: Green leafhopper foliar spray assay on rice. Here is the method:
A foliar spray assay and a root-uptake systemic assay were performed on both brown planthopper and green leafhopper. Four-week-old rice seedlings were submerged in 3-cm depth of water in the bottom portion (high 5 cm, diameter 3 cm) of a 2-part glass cylinder (high 18 cm, diameter 3 cm). A metal screen was used to hold the seedlings within the bottom portion. Scotch tape was used to bind the two portions of the cylinder after setting up the seedlings. A metal cap was used to cover the cylinder. There were 4 cylinders for each treatment. The test compound was dissolved in acetone to make a 10,000 ppm stock solution. For the foliar spray assay, this stock solution was diluted with water to make 10, 2.5, 0.31, 0.08 and 0.02 ppm test solutions. A volume of 0.5 ml of a test solution or solvent blank as check was sprayed into the glass cylinder. For systemic test, the stock solution was incorporated at final test concentrations of 10, 2.5, 0.31, 0.08 and 0.02 ppm in the water in which rice seedlings were submerged. In both foliar spray and systemic tests, five laboratory-reared 3rd instar nymphs of brown planthopper or green leafhopper were introduced into each cylinder 3 hr after insecticide application. The treated test units were kept in a growth chamber with conditions set as followings: Temperature 28±0.5° C.; Relative humidity 70±0.5%; Photoperiod […].

For experiment [2], the system named is Cotton Aphid (Aphis gossypii). The experiment is described as follows: Cotton aphid seed coating assay on squash. The following applies: 10% SC formulation, infested 13 days after planting, counted 3 days later. Here is the method: Compound 2 was tested in an assay designed to evaluate its systemic activity for control of cotton aphid through seed-coating prior to planting. The crop used in this assay was a hybrid squash (var. Pic-N-Pic). Test compound was formulated in a 10% SC formulation. For the 1 mg/seed treatment, the original 10% formulation was used. For the 0.1 mg/seed treatment, the 10% formulation were diluted 10× with DI water before application. Ten squash seeds were used for each treatment. Seeds were placed on waxed paper and a pipette was used to apply the original or diluted formulations to each seed. One half (5 ul) of the sample was spread onto one side of a seed. Once dried (approximately 1 hr), the seed was flipped over and the 2nd half of sample was spread over the other side. The air-dried, treated seeds were individually planted into 3 inch pots containing metro mix. The pots were placed on a California cart and moved into the greenhouse for sub watering only. Thirteen days later, when the seedlings were approximately 9 inch tall with three expanding true leaves, the 1st leaf was infested with approximately 40 wingless aphids. The infested plants were kept in an environmental holding room (23 C, 40% RH, 16 hr light: 8 hr dark) for three days before the number of live aphids was counted under a microscope. […]

Experiment [3] relates to Brown Dog Tick (Rhipicephalus sanguineus). In words: Brown dog tick glass plate assay. The following applies: 48-hour observation. The procedure: Compound 2 was evaluated in a dose response series to establish the range of activity of the test compound. Technical material was dissolved in acetone and diluted with the same solvent to obtain the test concentrations. Tick bioassays were conducted by applying 1.0 ml of the test substance to clean dry glass plates confined by 10 cm grease pencil circles drawn on the plates and spread evenly with an acid brush. The plates were allowed to dry for at least 1 hour before adult ticks were confined to the treated substrate using 10 cm Petri dish lids. Each treatment was replicated 5 times. Approximately 5 adult ticks were placed into each replicate. Mortality was assessed at 2, 8, 24 and 48 hours after introduction of the ticks into the test system. The mean percent mortality for each dosage group and time interval was determined and results from the 48-hour observation are presented in Table 10.

In the case of `CC(c1ccc(C(F)(F)F)nc1)S(C)(=O)=NC#N` (stereo not drawn) [Compound 2, [1-(6-trifluoromethylpyridin-3-yl)ethyl](methyl)-oxido-λ^4-sulfanylidenecyanamide], the “% Control at ppm against green leafhopper” value in experiment [1] (0.02 ppm) is recorded as “D (60-69)”; in experiment [1] (0.08 ppm), “A (90-100)”; in experiment [1] (0.31 ppm), “A (90-100)”; in experiment [1] (2.5 ppm), “A (90-100)”; in experiment [1] (10 ppm) it was “A (90-100)”. Besides, the “% Control, root uptake systemic, cotton aphid on squash” value in experiment [2] (seed coating 0.1 mg/seed) was 99.7%; in experiment [2] (seed coating 1 mg/seed) it was 100%. Also, the mortality at 50 ppm in experiment [3] (50 ppm) was determined as 28%. The mortality at 500 ppm in experiment [3] (500 ppm) came to 61%.

The values are drawn from patent publication US8193364B2, “Insecticidal N-substituted (6-haloalkylpyridin-3-yl)-alkyl sulfoximines” (Dow AgroSciences, LLC., priority 2006, dated 2012).
